According to patent US20250147039A1, “Compounds for complexation of rare earth elements and/or s-, p-, d- block metals, their coordination compounds, peptide conjugates, method of their preparation and use thereof” (USTAV ORGANICKE CHEMIE A BIOCHEMIE AV CR V.V.I., priority 2021, published 2025):

Tests used:
[1] = Formation of 1,5-cz-[M(Lig)] from Lig and M^III ions (metal dependent click-zip) (Charts 4, 5); format: physicochemical; details: MOPS/NaOH buffer pH 7.0, TD728, TD827 in 50% i-PrOH; for conversion to 1,5-cz-[M(Lig)], Y^III: TD714 sum of two diastereoisomers
[2] = Formation of 1,5-cz-[Ln(Lig)] from Lig and Ln^III ions (metal dependent click-zip), MOPS/NaOH buffer pH 7.0, analytical HPLC (Charts 1, 2); details: MOPS/NaOH buffer pH 7.0

Row | Structure (SMILES) | conversion to 1,5-cz-[M(Lig)], Sc^III ([1]; 1 week at 80° C.) | conversion to 1,5-cz-[M(Lig)], Y^III ([1]; 1 week at 80° C.) | conversion to 1,5-cz-[M(Lig)], Sc^III ([1]; 1 hour at 80° C.) | conversion to 1,5-cz-[M(Lig)], Y^III ([1]; 1 hour at 80° C.) | conversion to 1,5-cz-[Ln(Lig)], Ce^III ([2]; after 1 hour at 80° C.) | conversion to 1,5-cz-[Ln(Lig)], Dy^III ([2]; after 1 week at 80° C.) | conversion to 1,5-cz-[Ln(Lig)], Dy^III ([2]; after 1 hour at 80° C.) | conversion to 1,5-cz-[Ln(Lig)], Er^III ([2]; after 1 week at 80° C.) | conversion to 1,5-cz-[Ln(Lig)], Er^III ([2]; after 1 hour at 80° C.) | conversion to 1,5-cz-[Ln(Lig)], Eu^III ([2]; after 1 week at 80° C.) | conversion to 1,5-cz-[Ln(Lig)], Eu^III ([2]; after 1 hour at 80° C.) | conversion to 1,5-cz-[Ln(Lig)], Gd^III ([2]; after 1 week at 80° C.) | conversion to 1,5-cz-[Ln(Lig)], Gd^III ([2]; after 1 hour at 80° C.) | conversion to 1,5-cz-[Ln(Lig)], Ho^III ([2]; after 1 week at 80° C.) | conversion to 1,5-cz-[Ln(Lig)], Ho^III ([2]; after 1 hour at 80° C.) | conversion to 1,5-cz-[Ln(Lig)], La^III ([2]; after 1 hour at 80° C.) | conversion to 1,5-cz-[Ln(Lig)], Lu^III ([2]; after 1 week at 80° C.) | conversion to 1,5-cz-[Ln(Lig)], Lu^III ([2]; after 1 hour at 80° C.) | conversion to 1,5-cz-[Ln(Lig)], Nd^III ([2]; after 1 hour at 80° C.) | conversion to 1,5-cz-[Ln(Lig)], Pr^III ([2]; after 1 hour at 80° C.) | also measured
1 | C#CCN(CC#C)CCN1CCN(CC(=O)O)CCN(Cc2cc(-c3ccccc3)cc(CN=[N+]=[N-])n2)CCN(CC(=O)O)CC1 [TD669] | 0% | 12% | 0% | 0% | 0% | 20% | 0% | 12% | 0% | 25% | 0% | 24% | 0% | 14% | 0% | 0% | 7% | 0% | 0% | 0% | conversion to 1,5-cz-[Ln(Lig)], Sm^III ([2]; after 1 week at 80° C.): 33%; conversion to 1,5-cz-[Ln(Lig)], Sm^III ([2]; after 1 hour at 80° C.): 0%; conversion to 1,5-cz-[Ln(Lig)], Tb^III ([2]; after 1 hour at 80° C.): 0%; conversion to 1,5-cz-[Ln(Lig)], Tm^III ([2]; after 1 week at 80° C.): 11%; conversion to 1,5-cz-[Ln(Lig)], Tm^III ([2]; after 1 hour at 80° C.): 0%; conversion to 1,5-cz-[Ln(Lig)], Yb^III ([2]; after 1 week at 80° C.): 10%; conversion to 1,5-cz-[Ln(Lig)], Yb^III ([2]; after 1 hour at 80° C.): 0%
2 | C#Cc1cccc(CN2CCN(CC(=O)O)CCN(Cc3cc(-c4ccc(C(=O)O)cc4)cc(CN=[N+]=[N-])n3)CCN(CC(=O)O)CC2)n1 [TD742] | 52% | 94% | 7% | 22% | 1% | 93% | 15% | 94% | 34% | 89% | 4% | 91% | 5% | 94% | 22% | 1% | 94% | 66% | 1% | 1% | conversion to 1,5-cz-[Ln(Lig)], Ce^III ([2]; after 1 week at 80° C.): 43%; conversion to 1,5-cz-[Ln(Lig)], La^III ([2]; after 1 week at 80° C.): 40%; conversion to 1,5-cz-[Ln(Lig)], Nd^III ([2]; after 1 week at 80° C.): 76%; conversion to 1,5-cz-[Ln(Lig)], Pr^III ([2]; after 1 week at 80° C.): 66%; conversion to 1,5-cz-[Ln(Lig)], Sm^III ([2]; after 1 week at 80° C.): 87%; conversion to 1,5-cz-[Ln(Lig)], Sm^III ([2]; after 1 hour at 80° C.): 3%; conversion to 1,5-cz-[Ln(Lig)], Tb^III ([2]; after 1 week at 80° C.): 93%; conversion to 1,5-cz-[Ln(Lig)], Tb^III ([2]; after 1 hour at 80° C.): 9%; conversion to 1,5-cz-[Ln(Lig)], Tm^III ([2]; after 1 week at 80° C.): 94%; conversion to 1,5-cz-[Ln(Lig)], Tm^III ([2]; after 1 hour at 80° C.): 48%; conversion to 1,5-cz-[Ln(Lig)], Yb^III ([2]; after 1 week at 80° C.): 93%; conversion to 1,5-cz-[Ln(Lig)], Yb^III ([2]; after 1 hour at 80° C.): 55%
3 | C#Cc1cccc(CN2CCN(CC(=O)NCC(=O)O)CCN(Cc3cc(-c4ccccc4)cc(CN=[N+]=[N-])n3)CCN(CC(=O)NCC(=O)O)CC2)n1 [TD778] | 0% | 27% | 0% | 17% | 20% | 18% | 13% | 32% | 25% | 3% | 4% | 11% | 4% | 30% | 17% | 24% | 34% | 26% | 9% | 13% | conversion to 1,5-cz-[Ln(Lig)], Ce^III ([2]; after 1 week at 80° C.): 0%; conversion to 1,5-cz-[Ln(Lig)], La^III ([2]; after 1 week at 80° C.): 0%; conversion to 1,5-cz-[Ln(Lig)], Nd^III ([2]; after 1 week at 80° C.): 0%; conversion to 1,5-cz-[Ln(Lig)], Pr^III ([2]; after 1 week at 80° C.): 0%; conversion to 1,5-cz-[Ln(Lig)], Sm^III ([2]; after 1 week at 80° C.): 1%; conversion to 1,5-cz-[Ln(Lig)], Sm^III ([2]; after 1 hour at 80° C.): 4%; conversion to 1,5-cz-[Ln(Lig)], Tb^III ([2]; after 1 week at 80° C.): 15%; conversion to 1,5-cz-[Ln(Lig)], Tb^III ([2]; after 1 hour at 80° C.): 9%; conversion to 1,5-cz-[Ln(Lig)], Tm^III ([2]; after 1 week at 80° C.): 31%; conversion to 1,5-cz-[Ln(Lig)], Tm^III ([2]; after 1 hour at 80° C.): 31%; conversion to 1,5-cz-[Ln(Lig)], Yb^III ([2]; after 1 week at 80° C.): 27%; conversion to 1,5-cz-[Ln(Lig)], Yb^III ([2]; after 1 hour at 80° C.): 30%

Continued, in another order:

Row | conversion to 1,5-cz-[M(Lig)], Sc^III ([1]; 1 week at 80° C.) | conversion to 1,5-cz-[M(Lig)], Y^III ([1]; 1 week at 80° C.) | conversion to 1,5-cz-[M(Lig)], Sc^III ([1]; 1 hour at 80° C.) | conversion to 1,5-cz-[M(Lig)], Y^III ([1]; 1 hour at 80° C.) | conversion to 1,5-cz-[Ln(Lig)], Ce^III ([2]; after 1 hour at 80° C.) | conversion to 1,5-cz-[Ln(Lig)], Dy^III ([2]; after 1 week at 80° C.) | conversion to 1,5-cz-[Ln(Lig)], Dy^III ([2]; after 1 hour at 80° C.) | conversion to 1,5-cz-[Ln(Lig)], Er^III ([2]; after 1 week at 80° C.) | conversion to 1,5-cz-[Ln(Lig)], Er^III ([2]; after 1 hour at 80° C.) | conversion to 1,5-cz-[Ln(Lig)], Eu^III ([2]; after 1 week at 80° C.) | conversion to 1,5-cz-[Ln(Lig)], Eu^III ([2]; after 1 hour at 80° C.) | conversion to 1,5-cz-[Ln(Lig)], Gd^III ([2]; after 1 week at 80° C.) | conversion to 1,5-cz-[Ln(Lig)], Gd^III ([2]; after 1 hour at 80° C.) | conversion to 1,5-cz-[Ln(Lig)], Ho^III ([2]; after 1 week at 80° C.) | conversion to 1,5-cz-[Ln(Lig)], Ho^III ([2]; after 1 hour at 80° C.) | conversion to 1,5-cz-[Ln(Lig)], La^III ([2]; after 1 hour at 80° C.) | conversion to 1,5-cz-[Ln(Lig)], Lu^III ([2]; after 1 week at 80° C.) | conversion to 1,5-cz-[Ln(Lig)], Lu^III ([2]; after 1 hour at 80° C.) | conversion to 1,5-cz-[Ln(Lig)], Nd^III ([2]; after 1 hour at 80° C.) | conversion to 1,5-cz-[Ln(Lig)], Pr^III ([2]; after 1 hour at 80° C.) | Structure (SMILES) | also measured
4 | 23% | 95% | 2% | 22% | 1% | 94% | 16% | 95% | 37% | 92% | 4% | 91% | 5% | 95% | 24% | 1% | 95% | 71% | 2% | 1% | C#Cc1cccc(CN2CCN(CC(=O)O)CCN(Cc3cccc(CN=[N+]=[N-])n3)CCN(CC(=O)O)CC2)n1 [TD556] | conversion to 1,5-cz-[Ln(Lig)], Ce^III ([2]; after 1 week at 80° C.): 25%; conversion to 1,5-cz-[Ln(Lig)], La^III ([2]; after 1 week at 80° C.): 50%; conversion to 1,5-cz-[Ln(Lig)], Nd^III ([2]; after 1 week at 80° C.): 81%; conversion to 1,5-cz-[Ln(Lig)], Pr^III ([2]; after 1 week at 80° C.): 64%; conversion to 1,5-cz-[Ln(Lig)], Sm^III ([2]; after 1 week at 80° C.): 92%; conversion to 1,5-cz-[Ln(Lig)], Sm^III ([2]; after 1 hour at 80° C.): 3%; conversion to 1,5-cz-[Ln(Lig)], Tb^III ([2]; after 1 week at 80° C.): 95%; conversion to 1,5-cz-[Ln(Lig)], Tb^III ([2]; after 1 hour at 80° C.): 11%; conversion to 1,5-cz-[Ln(Lig)], Tm^III ([2]; after 1 week at 80° C.): 95%; conversion to 1,5-cz-[Ln(Lig)], Tm^III ([2]; after 1 hour at 80° C.): 52%; conversion to 1,5-cz-[Ln(Lig)], Yb^III ([2]; after 1 week at 80° C.): 95%; conversion to 1,5-cz-[Ln(Lig)], Yb^III ([2]; after 1 hour at 80° C.): 64%
5 | 14% | 71% | 3% | 9% | 0% | 65% | 5% | 91% | 17% | 14% | 1% | 19% | 2% | 82% | 9% | 0% | 96% | 49% | 0% | 0% | [N-]=[N+]=NCc1cc(-c2ccccc2)cc(CN2CCN(CC(=O)O)CCN(Cc3cccc(C#CCN)n3)CCN(CC(=O)O)CC2)n1 [TD722] | conversion to 1,5-cz-[Ln(Lig)], Ce^III ([2]; after 1 week at 80° C.): 1%; conversion to 1,5-cz-[Ln(Lig)], La^III ([2]; after 1 week at 80° C.): 2%; conversion to 1,5-cz-[Ln(Lig)], Nd^III ([2]; after 1 week at 80° C.): 4%; conversion to 1,5-cz-[Ln(Lig)], Pr^III ([2]; after 1 week at 80° C.): 3%; conversion to 1,5-cz-[Ln(Lig)], Sm^III ([2]; after 1 week at 80° C.): 9%; conversion to 1,5-cz-[Ln(Lig)], Sm^III ([2]; after 1 hour at 80° C.): 1%; conversion to 1,5-cz-[Ln(Lig)], Tb^III ([2]; after 1 week at 80° C.): 54%; conversion to 1,5-cz-[Ln(Lig)], Tb^III ([2]; after 1 hour at 80° C.): 3%; conversion to 1,5-cz-[Ln(Lig)], Tm^III ([2]; after 1 week at 80° C.): 96%; conversion to 1,5-cz-[Ln(Lig)], Tm^III ([2]; after 1 hour at 80° C.): 27%; conversion to 1,5-cz-[Ln(Lig)], Yb^III ([2]; after 1 week at 80° C.): 96%; conversion to 1,5-cz-[Ln(Lig)], Yb^III ([2]; after 1 hour at 80° C.): 38%
